Laboratory results as given in patent US4907606A, “Tobacco compositions, method and device for releasing essentially pure nicotine” (AB Leo, priority 1984, dated 1990).
Where two headings read alike, the source gives them in different places.

Test: Bioavailability: blood plasma nicotine levels after inhalation of air from the glass columns
Format: in vivo
Details: human, inhaled or intranasal, test persons abstained from nicotine for 12 h, read-out: Plasma nicotine, peak value
Method: Untreated tobacco was used as reference.
The bioavailability of nicotine, i.e. the blood plasma nicotine levels, after inhalation of air from the glass columns prepared as described above at 65° C. and 75° C., respectively was also investigated. The test persons had abstained from smoking or having nicotine in any other way for 12 h before the test.

Structure (SMILES): CN1CCCC1c1cccnc1 (centres unmarked) [nicotine]
- Cmax (column at 65 °C): 5 ng/mL
- Cmax (column at 75 °C): 10 to 15 ng/mL
